Measurements as given in patent publication US20070276030A1, “Pyranobenzothiophene derivatives to treat infection with hepatitis c virus” (priority 2003, published 2007).
Where two headings read alike, the source gives them in different places.

What was measured:
[1] = target: T1, HCV RdRp NS5B d21BK (BK strain, genotype 1b) (Hepatitis C virus genotype 1b, UniProt P26663); assay: Hepatitis C polymerase (NS5B) inhibition, radioactive filter assay; assay type: biochemical; conditions: for inhibition at 20 µM: read-out: HCV pol % inh at 20 μM
T1 construct: NS5B from the BK strain (genotype 1b) is expressed in E. coli as a protein in which the 21 C-terminal amino acids are replaced; made in house; host or cells: E. coli
Text: The ability of the compounds of the present invention to inhibit Hepatitis C Polymerase was established by the following experimental procedure:
NS5B from the BK strain (genotype 1b) is expressed in E. coli as a protein in which the 21 C-terminal amino acids are replaced with a short linker and a hexahistidine tag ([…]). The purified protein is mixed with radioactive nucleotides and allowed to replicate a heteropolymeric RNA substrate, primed by an endogenous short hairpin, resulting in an approximately 760 nt product. The radioactive product is captured on a filter and quantitated after removal of the unincorporated nucleotides.
Dilute nucleotides 1:1000 to 10 μM (GTP and CTP) or 1:100 to 100 μM (ATP and UTP) into RNase free water.
(1) Compounds 10 μl at 10 μg/ml in 15% Dimethylsulfoxide (DMSO)
Add 20 μl enzyme mix into each well of the assay plate. Incubate compound and enzyme at room temperature for 15 minutes.
(3) Template Mix—Prepare Ahead
Spin down a tube of RNA (5 μg/tube stored in 75% ethanol and 0.3 M sodium acetate) in a microcentrifuge for 20 minutes at 4° C. One tube is enough for 1-1.5 plates. Remove as much ethanol from the tube as possible by inverting the tube. Be gentle, pellet RNA may not adhere to the tube. Vacuum dry the RNA. Resuspend the RNA by adding 1 ml of DEPC water, close the cap of the tube tightly. To dissolve RNA, incubate RNA solution on ice for ˜60 minutes and gently vortex. Spin briefly to ensure all RNA solution is down to the bottom of the tube before opening cap. Gently transfer RNA solution into a 5 ml or larger tube. Add another 3 ml of DEPC water (total 4 ml of volume).
Add the following volumes of reagents
Add 20 μl template mix per reaction (i.e. 20 ng of pOF per reaction or ˜3 nM). (4) Incubate reaction at room temperature (22-25° C.) for 2 hours. (5) Stop reaction by adding 50 μl of 170 mM EDTA.
Final concentration of EDTA is 85 mM.
(6) Prewet filters of Millipore multiscreen assay plate by adding […] of 0.5 M sodium phosphate buffer, pH 7.0 into each well. Let stand at room temperature for 2-3 minutes.
(7) Place the multiscreen filter plate onto a Millipore Manifold and turn on vacuum to allow buffer to flow through. Turn off vacuum. Transfer 80 μl of the reaction product into each well of the filter plate. Let stand for 2-3 minutes. Turn on vacuum to filter reaction product.
(8) Turn off vacuum. Add 200 μl of 0.5 M sodium phosphate buffer, pH 7.0 into each well to wash filter. Turn on vacuum.
Repeat step (8) three more times.
(9) Remove polypropylene bottom. Spot dry filter at the bottom with paper towel. Air dry filter plate on a bench for 1 hour. Add 40 μl Super Mix scintillant. Seal top of the plate with a tape. Place plate into a Packard carrier or micro-beta carrier.
(10) Count plate using a Packard Topcount or micro-beta counter. Count (for example using Program 10) for ^33P in Top count or ^33P program in micro-beta.
Percent inhibition is calculated after background subtraction as a percent reduction of activity relative to the positive control (average value of the plate excluding the negative controls). For the primary screen hits were chosen as showing ≧75% inhibition.
See. Ferrari et al. 1999. J. Virology 73:1649-1654: “Characterization of soluble Hepatitis C virus RNA-dependent RNA polymerase expressed in E. coli and Takamizawa et all 1991” and J. Virology 65:1105-1113: “Structure and characterization of the Hepatitis C virus genome isolated from human carriers,” both references are hereby incorporated by reference in their entireties, specifically methods of testing inhibition of Hepatitis C Polymerase with test compounds.

[2] = U.S. Pat. No. 4,021,451; cited from earlier work

T1 sequence (P26663 2420-2989): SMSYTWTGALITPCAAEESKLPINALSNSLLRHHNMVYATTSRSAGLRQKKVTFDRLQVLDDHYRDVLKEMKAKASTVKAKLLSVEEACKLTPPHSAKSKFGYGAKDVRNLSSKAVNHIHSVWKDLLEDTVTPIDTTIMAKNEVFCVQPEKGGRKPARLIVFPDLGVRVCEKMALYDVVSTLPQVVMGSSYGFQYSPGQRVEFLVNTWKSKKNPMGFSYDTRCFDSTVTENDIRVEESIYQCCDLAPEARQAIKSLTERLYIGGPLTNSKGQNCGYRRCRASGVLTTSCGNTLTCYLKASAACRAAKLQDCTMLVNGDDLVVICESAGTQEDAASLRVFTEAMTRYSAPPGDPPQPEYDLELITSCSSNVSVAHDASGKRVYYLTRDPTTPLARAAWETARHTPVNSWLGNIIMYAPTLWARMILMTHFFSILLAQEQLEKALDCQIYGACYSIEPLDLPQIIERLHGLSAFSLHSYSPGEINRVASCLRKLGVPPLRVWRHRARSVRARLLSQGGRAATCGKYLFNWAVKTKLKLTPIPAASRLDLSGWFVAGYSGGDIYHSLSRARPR

For `CCC[C@@]1(CC(=O)O)OCCc2c1sc1c(C)ccc(C#N)c21` [Example 4, [(1S)-5-cyano-8-methyl-1-propyl-3,4-dihydro-1H-[1]benzothieno[2,3-c]pyran-1-yl]acetic acid], the IC50 [1] was 1900 nM.

Work on `CC(C)C1(CC(=O)O)OCCc2c1sc1ccccc21` (stereo not drawn) [Example 18, (1-isopropyl-3,4-dihydro-1H-[1]benzothieno[2,3-c]pyran-1-yl)acetic acid] yielded an IC50 [1] greater than 20000 nM and an inhibition at 20 µM [1] of less than 10%.

For `CCC[C@@]1(CC(=O)O)OCCc2c1sc1c(C)cc(F)c(C#N)c21` [Example 12, [(1S)-5-cyano-6-fluoro-8-methyl-1-propyl-3,4-dihydro-1H-[1]benzothieno[2,3-c]pyran-1-yl]acetic acid], the IC50 [1] was 5400 nM.

In the case of `CCCC1(CC(=O)O)OCCc2c1sc1c(C)ccc(C#N)c21` (stereo not drawn) [Example 2, (5-cyano-8-methyl-1-propyl-3,4-dihydro-1H-[1]benzothieno[2,3-c]pyran-1-yl)acetic acid], the IC50 [1] is reported as 17700 nM.

Work on `CCCC1(CC(=O)O)OCCc2c1sc1c(C)cc(F)cc21` (stereo not drawn) [Example 9, (6-fluoro-8-methyl-1-propyl-3,4-dihydro-1H-[1]benzothieno[2,3-c]pyran-1-yl)acetic acid] yielded an IC50 [1] of 2900 nM.

For `CC1(c2ccc(CC(=O)O)cc2)OCCc2c1sc1ccccc21` (stereo not drawn) [[p-(3,4-dihydro-1-methyl-1H-[1]benzothieno[2,3-c]pyran-1-yl)phenyl]-acetic acid], the “biological activity such as antiinflammatory or antibacterial or antifungal activity” value [2] is given as “lacks any biological activity”.

`CCC[C@]1(CC(=O)O)OCCc2c1sc1c(C)ccc(C#N)c21` [Example 3, [(1R)-5-cyano-8-methyl-1-propyl-3,4-dihydro-1H-[1]benzothieno[2,3-c]pyran-1-yl]acetic acid] showed an IC50 [1] of 620 nM.

With `CCCC1(CC(=O)O)OCCc2c1sc1c(C)ccc(Br)c21` (stereo not drawn) [Example 1, (5-bromo-8-methyl-1-propyl-3,4-dihydro-1H-[1]benzothieno[2,3-c]pyran-1-yl)acetic acid] the IC50 [1] was 180 nM.

Work on `CC1(CC(=O)O)OCCc2c1sc1ccccc21` (stereo not drawn) [Example 13, (1-methyl-3,4-dihydro-1H-[1]benzothieno[2,3-c]pyran-1-yl)acetic acid] yielded an IC50 [1] greater than 20000 nM and an inhibition at 20 µM [1] of less than 10%.

`CCCC1(CC(=O)O)OCCc2c1sc1c(C)cc(F)c(C#N)c21` (stereo not drawn) [Example 10, (5-cyano-6-fluoro-8-methyl-1-propyl-3,4-dihydro-1H-[1]benzothieno[2,3-c]pyran-1-yl)acetic acid] gave an IC50 [1] of 130 nM.

`CC1(CC(=O)O)OCCc2c1sc1c(Cl)ccc(Cl)c21` (stereo not drawn) [Example 6, (5,8-chloro-1-methyl-3,4-dihydro-1H-[1]benzothieno[2,3-c]pyran-1-yl)acetic acid] gave an IC50 ([1]; NS5B BK strain, read-out: HCV pol BK IC50) of 280 nM.

`CCCCC1(CC(=O)O)OCCc2c1sc1ccccc21` (stereo not drawn) [Example 16, (1-butyl-3,4-dihydro-1H-[1]benzothieno[2,3-c]pyran-1-yl)acetic acid] gave an IC50 [1] greater than 20000 nM and an inhibition at 20 µM [1] of less than 10%.

`CCCCC1(CC(=O)O)OCCc2c1sc1c(Cl)ccc(Cl)c21` (stereo not drawn) [Example 7, (1-butyl-5,8-dichloro-3,4-dihydro-1H-[1]benzothieno[2,3-c]pyran-1-yl)acetic acid] showed an IC50 [1] of 320 nM.

Work on `O=C(O)CC1(c2ccccc2)OCCc2c1sc1ccccc21` (stereo not drawn) [Example 17, (1-phenyl-3,4-dihydro-1H-[1]benzothieno[2,3-c]pyran-1-yl)acetic acid] yielded an IC50 [1] greater than 20000 nM and an inhibition at 20 µM [1] of 27%.

Compound `CCC1(CC(=O)O)OCCc2c1sc1ccccc21` (stereo not drawn) [Example 14, (1-ethyl-3,4-dihydro-1H-[1]benzothieno[2,3-c]pyran-1-yl)acetic acid] has an IC50 [1] greater than 20000 nM and an inhibition at 20 µM [1] of less than 10%.

`CCOC(=O)CC1(CC(=O)O)OCCc2c1sc1ccccc21` (stereo not drawn) [Example 19, [1-(2-ethoxy-2-oxoethyl)-3,4-dihydro-1H-[1]benzothieno[2,3-c]pyran-1-yl]acetic acid] gave an IC50 [1] greater than 20000 nM and an inhibition at 20 µM [1] of less than 10%.

`CCC1(CC(=O)O)OCCc2c1sc1c(Cl)ccc(Cl)c21` (stereo not drawn) [Example 8, (5,8-dichloro-1-ethyl-3,4-dihydro-1H-[1]benzothieno[2,3-c]pyran-1-yl)acetic acid] gave an IC50 [1] of 170 nM.

`CCCC1(CC(=O)O)OCCc2c1sc1c(Cl)ccc(Cl)c21` (stereo not drawn) [Example 5, (5,8-dichloro-1-propyl-3,4-dihydro-1H-[1]benzothieno[2,3-c]pyran-1-yl)acetic acid] gave an IC50 [1] greater than 20000 nM and an inhibition at 20 µM [1] of less than 10%.

`CCCC1(CC(=O)O)OCCc2c1sc1ccccc21` (stereo not drawn) [Example 15, (1-propyl-3,4-dihydro-1H-[1]benzothieno[2,3-c]pyran-1-yl)acetic acid] showed an IC50 [1] greater than 20000 nM and an inhibition at 20 µM [1] of less than 10%.
